Test results taken from publication PMC5122408, “High throughput chemical library screening identifies a novel p110-δ inhibitor that potentiates the anti-myeloma effect of bortezomib” (Oncotarget, 2016).
Where two headings read alike, the source gives them in different places.

Columns and labels:
[1] = system: HCC-2998; assay: NCI-60 panel cell growth screen; type: cell-based, human; details: HCC-2998 (Colon cancer)
[2] = system: A549; assay: NCI-60 panel cell growth screen; type: cell-based, human; details: A549 (NSCLC)
[3] = system: SR; assay: NCI-60 panel cell growth screen; type: cell-based, human; details: SR (Leukemia)
[4] = system: SF-539; assay: NCI-60 panel cell growth screen; type: cell-based, human; details: SF-539 (CNS Cancer)
[5] = system: HOP-62; assay: NCI-60 panel cell growth screen; type: cell-based, human; details: HOP-62 (NSCLC)
[6] = system: BMSCs; assay: XTT viability of BMSCs; type: cell-based; details: 72 h, XTT assay
[7] = system: NCI-H332M; assay: NCI-60 panel cell growth screen; type: cell-based, human; details: NCI-H332M (NSCLC)
[8] = system: HT29; assay: NCI-60 panel cell growth screen; type: cell-based, human; details: HT29 (Colon cancer)
[9] = system: COLO205; assay: NCI-60 panel cell growth screen; type: cell-based, human; details: COLO205 (Colon cancer)
[10] = system: CCRF-CEM; assay: NCI-60 panel cell growth screen; type: cell-based, human; details: CCRF-CEM (Leukemia)
[11] = system: SNB-19; assay: NCI-60 panel cell growth screen; type: cell-based, human; details: SNB-19 (CNS Cancer)
[12] = system: KM12; assay: NCI-60 panel cell growth screen; type: cell-based, human; details: KM12 (Colon cancer)
[13] = system: SF-295; assay: NCI-60 panel cell growth screen; type: cell-based, human; details: SF-295 (CNS Cancer)
[14] = biological target: ERBB2 (Homo sapiens, UniProt P04626); assay: Kinase inhibitory profile; type: biochemical; details: Other Clinically-relevant Kinases; 10-point concentration assays
[15] = system: MOLT-4; assay: NCI-60 panel cell growth screen; type: cell-based, human; details: MOLT-4 (Leukemia)
[16] = biological target: p110-α (Homo sapiens, UniProt P42336); assay: Kinase inhibitory profile / PIP3 production; design: Inhibitory profile (kinase inhibition): key to the marks not given beside the values
[17] = system: HL-60 (TB); details: HL-60 (TB) (Leukemia)
[18] = read-out: LC50 (the source's name)

Chain of p110-α (P42336 whole entry): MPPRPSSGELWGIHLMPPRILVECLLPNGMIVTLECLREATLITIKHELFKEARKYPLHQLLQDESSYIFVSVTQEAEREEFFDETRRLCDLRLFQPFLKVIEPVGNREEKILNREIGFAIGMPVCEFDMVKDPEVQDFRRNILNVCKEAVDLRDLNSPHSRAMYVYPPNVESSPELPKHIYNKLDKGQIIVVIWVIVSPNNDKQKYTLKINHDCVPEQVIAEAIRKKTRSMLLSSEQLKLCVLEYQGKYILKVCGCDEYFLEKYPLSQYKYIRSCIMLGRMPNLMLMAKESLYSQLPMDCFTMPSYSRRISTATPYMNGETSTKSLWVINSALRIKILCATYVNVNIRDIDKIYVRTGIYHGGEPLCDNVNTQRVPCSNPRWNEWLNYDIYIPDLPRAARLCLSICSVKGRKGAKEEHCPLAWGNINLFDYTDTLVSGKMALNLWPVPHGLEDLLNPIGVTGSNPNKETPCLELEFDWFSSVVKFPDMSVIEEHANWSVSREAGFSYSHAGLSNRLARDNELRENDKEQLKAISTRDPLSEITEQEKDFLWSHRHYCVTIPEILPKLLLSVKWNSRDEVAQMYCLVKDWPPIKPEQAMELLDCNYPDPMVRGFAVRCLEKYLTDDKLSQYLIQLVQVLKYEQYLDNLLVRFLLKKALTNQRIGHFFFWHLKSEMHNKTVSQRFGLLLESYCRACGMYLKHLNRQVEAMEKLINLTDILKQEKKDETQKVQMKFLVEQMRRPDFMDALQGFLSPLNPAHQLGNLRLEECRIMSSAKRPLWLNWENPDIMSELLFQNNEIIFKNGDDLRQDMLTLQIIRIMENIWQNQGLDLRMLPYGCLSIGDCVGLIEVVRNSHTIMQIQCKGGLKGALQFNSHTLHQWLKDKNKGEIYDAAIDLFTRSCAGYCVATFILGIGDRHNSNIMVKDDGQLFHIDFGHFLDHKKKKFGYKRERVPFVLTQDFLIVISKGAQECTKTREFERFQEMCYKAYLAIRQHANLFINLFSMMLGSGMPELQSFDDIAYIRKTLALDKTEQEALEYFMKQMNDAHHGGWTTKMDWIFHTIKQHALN
Chain of p110-α (P27986 whole entry partner): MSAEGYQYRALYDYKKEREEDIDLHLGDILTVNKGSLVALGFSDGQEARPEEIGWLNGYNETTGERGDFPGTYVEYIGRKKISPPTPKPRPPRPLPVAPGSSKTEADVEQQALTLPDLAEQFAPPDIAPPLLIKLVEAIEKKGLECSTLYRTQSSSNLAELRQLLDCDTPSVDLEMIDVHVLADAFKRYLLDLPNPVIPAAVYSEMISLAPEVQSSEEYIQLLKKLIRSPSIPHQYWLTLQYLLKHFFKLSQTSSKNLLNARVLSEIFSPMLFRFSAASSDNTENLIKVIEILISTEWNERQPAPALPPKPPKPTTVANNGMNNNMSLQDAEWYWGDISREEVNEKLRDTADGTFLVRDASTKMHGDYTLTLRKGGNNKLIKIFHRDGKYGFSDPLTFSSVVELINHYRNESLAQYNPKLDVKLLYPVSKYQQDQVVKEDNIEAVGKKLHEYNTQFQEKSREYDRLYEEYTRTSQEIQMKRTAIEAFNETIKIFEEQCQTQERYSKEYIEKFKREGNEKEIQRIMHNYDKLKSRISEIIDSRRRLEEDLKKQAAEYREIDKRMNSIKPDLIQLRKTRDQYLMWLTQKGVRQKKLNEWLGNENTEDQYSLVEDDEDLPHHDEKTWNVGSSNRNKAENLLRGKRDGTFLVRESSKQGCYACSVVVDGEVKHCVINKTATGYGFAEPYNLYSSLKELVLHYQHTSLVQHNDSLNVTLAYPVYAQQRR

With “N-[4-hydroxy-3-(8-quinolinylthio)-1-naphthyl]benzenesulfonamide [DT97]” the GI50 [1] was 4.77 µM, the TGI [1] was 1.91E-5 and the “Percent Growth” value ([1]; log concentration −4.0) was −82%. For the same substance, the “Percent Growth” value ([1]; log concentration −5.0) was 32%, the “Percent Growth” value ([1]; log concentration −6.0) was 88% and the “Percent Growth” value ([1]; log concentration −7.0) was 106%. The “Percent Growth” value ([1]; log concentration −8.0) was 105%, the CC50 [1, 18] was 52.4 µM and the GI50 [2] was 747 nM. For the same substance, the TGI [2] was 1.81E-5, the “Percent Growth” value ([2]; log concentration −4.0) was −46% and the “Percent Growth” value ([2]; log concentration −5.0) was 16%. For the same substance, the “Percent Growth” value ([2]; log concentration −6.0) was 41%, the “Percent Growth” value ([2]; log concentration −7.0) was 112% and the “Percent Growth” value ([2]; log concentration −8.0) was 106%. For the same substance, the GI50 [3] was 426 nM, the TGI [3] was 1.72E-5 and the “Percent Growth” value ([3]; log concentration −4.0) was −15%. The “Percent Growth” value ([3]; log concentration −5.0) was 5%, the “Percent Growth” value ([3]; log concentration −6.0) was 13% and the “Percent Growth” value ([3]; log concentration −7.0) was 113%. The “Percent Growth” value ([3]; log concentration −8.0) was 109%, the CC50 [3, 18] was > 100 µM and the GI50 [4] was 957 nM. For the same substance, the TGI [4] was 5.13E-6, the “Percent Growth” value ([4]; log concentration −4.0) was −86% and the “Percent Growth” value ([4]; log concentration −5.0) was −20%. The “Percent Growth” value ([4]; log concentration −6.0) was 49%, the “Percent Growth” value ([4]; log concentration −7.0) was 98% and the “Percent Growth” value ([4]; log concentration −8.0) was 93%. The CC50 [4, 18] was 28.5 µM, the GI50 [5] was 1010 nM and the TGI [5] was 2.54E-5. For the same substance, the “Percent Growth” value ([5]; log concentration −4.0) was −37%, the “Percent Growth” value ([5]; log concentration −5.0) was 26% and the “Percent Growth” value ([5]; log concentration −6.0) was 50%. For the same substance, the “Percent Growth” value ([5]; log concentration −7.0) was 95%, the “Percent Growth” value ([5]; log concentration −8.0) was 93% and the viability [6] was “did not significantly reduce the viability”. For the same substance, the GI50 [7] was 2310 nM, the LC50 [7] was 39.4 µM and the TGI [7] was 1.37E-5. For the same substance, the “Percent Growth” value ([7]; log concentration −4.0) was −94%, the “Percent Growth” value ([7]; log concentration −5.0) was 15% and the “Percent Growth” value ([7]; log concentration −6.0) was 70%. For the same substance, the “Percent Growth” value ([7]; log concentration −7.0) was 94%, the “Percent Growth” value ([7]; log concentration −8.0) was 94% and the GI50 [8] was 2420 nM. The TGI [8] was 1.44E-5, the “Percent Growth” value ([8]; log concentration −4.0) was −44% and the “Percent Growth” value ([8]; log concentration −5.0) was 8%. For the same substance, the “Percent Growth” value ([8]; log concentration −6.0) was 76%, the “Percent Growth” value ([8]; log concentration −7.0) was 108% and the “Percent Growth” value ([8]; log concentration −8.0) was 103%. For the same substance, the CC50 [8, 18] was > 100 µM, the GI50 [9] was 1710 nM and the TGI [9] was 3.70E-6. For the same substance, the “Percent Growth” value ([9]; log concentration −4.0) was −59%, the “Percent Growth” value ([9]; log concentration −5.0) was −64% and the “Percent Growth” value ([9]; log concentration −6.0) was 85%. For the same substance, the “Percent Growth” value ([9]; log concentration −7.0) was 99%, the “Percent Growth” value ([9]; log concentration −8.0) was 94% and the CC50 [9, 18] was 8.03 µM. The GI50 [10] was 426 nM, the TGI [10] was 1.60E-5 and the “Percent Growth” value ([10]; log concentration −4.0) was −7%. For the same substance, the “Percent Growth” value ([10]; log concentration −5.0) was 2%, the “Percent Growth” value ([10]; log concentration −6.0) was 17% and the “Percent Growth” value ([10]; log concentration −7.0) was 106%. The “Percent Growth” value ([10]; log concentration −8.0) was 104%, the CC50 [10, 18] was > 100 µM and the GI50 [11] was 1980 nM. For the same substance, the TGI [11] was 2.14E-5, the “Percent Growth” value ([11]; log concentration −4.0) was −59% and the “Percent Growth” value ([11]; log concentration −5.0) was 29%. For the same substance, the “Percent Growth” value ([11]; log concentration −6.0) was 59%, the “Percent Growth” value ([11]; log concentration −7.0) was 94% and the “Percent Growth” value ([11]; log concentration −8.0) was 95%. The CC50 [11, 18] was 78.3 µM, the GI50 [12] was 2030 nM and the TGI [12] was 1.65E-5. The “Percent Growth” value ([12]; log concentration −4.0) was −87%, the “Percent Growth” value ([12]; log concentration −5.0) was 24% and the “Percent Growth” value ([12]; log concentration −6.0) was 61%. For the same substance, the “Percent Growth” value ([12]; log concentration −7.0) was 104%, the “Percent Growth” value ([12]; log concentration −8.0) was 104% and the CC50 [12, 18] was 46.6 µM. For the same substance, the GI50 [13] was 2840 nM, the TGI [13] was 1.50E-5 and the “Percent Growth” value ([13]; log concentration −4.0) was −78%. The “Percent Growth” value ([13]; log concentration −5.0) was 17%, the “Percent Growth” value ([13]; log concentration −6.0) was 78% and the “Percent Growth” value ([13]; log concentration −7.0) was 94%. The “Percent Growth” value ([13]; log concentration −8.0) was 92%, the CC50 [13, 18] was 50.7 µM and the “Inhibitory profile (kinase inhibition)” value [14] was “+”. For the same substance, the GI50 [15] was 546 nM, the LC50 [15] was > 100 µM and the TGI [15] was 5.53E-6. The “Percent Growth” value ([15]; log concentration −4.0) was −28%, the “Percent Growth” value ([15]; log concentration −5.0) was 9% and the “Percent Growth” value ([15]; log concentration −6.0) was 27%. The “Percent Growth” value ([15]; log concentration −7.0) was 116%, the “Percent Growth” value ([15]; log concentration −8.0) was 111% and the “Inhibitory profile (kinase inhibition)” value ([16]; Class I PI3Ks, 10-point concentration assays) was “++”. The “production of PIP3 (dose-dependent effect)” value ([16]; p110-α isoform, Figure 4B) was “weaker activity”, the GI50 [17] was 487 nM and the TGI [17] was 4.69E-6. The “Percent Growth” value ([17]; log concentration −4.0) was −63%, the “Percent Growth” value ([17]; log concentration −5.0) was −15% and the “Percent Growth” value ([17]; log concentration −6.0) was 31%. For the same substance, the “Percent Growth” value ([17]; log concentration −7.0) was 93%, the “Percent Growth” value ([17]; log concentration −8.0) was 99% and the CC50 ([17]; read-out: LC50) was 53.1 µM.
